Laboratory results published in patent US8507251B2, “Medium and method for culturing Mycobacterium avium subspecies paratuberculosis” (priority 2009, dated 2013).
Where “and” joins values, the source holds several entries; their conditions need not be identical. Equal entries are not always repeated.

Assays:
[1] = tested on: eight mycobacterial strains
[2] = tested on: MAP strain UCF-4; assay: radiometric 14CO2 BACTEC 460 growth culture, MAP UCF-4; type: cell-based, Mycobacterium avium subspecies paratuberculosis
[3] = tested on: M. avium ATCC 25291; assay: radiometric 14CO2 BACTEC 460 growth culture, M. avium 25291; type: cell-based, M. avium subspecies avium
[4] = tested on: single MAP strain; conditions: cited from earlier work
[5] = tested on: M. avium 101; assay: radiometric 14CO2 BACTEC 460 growth culture, M. avium 101; type: cell-based, M. avium subspecies avium
[6] = tested on: bacteria (including M. phlei) and fungal growth; conditions: 100-250 μg/ml; cited from earlier work
[7] = tested on: MAP strain Dominic (ATCC 43545); assay: radiometric 14CO2 BACTEC 460 growth culture, MAP Dominic; type: cell-based, Mycobacterium avium subspecies paratuberculosis
[8] = tested on: MAP 303; assay: radiometric 14CO2 BACTEC 460 growth culture, MAP 303; type: cell-based, Mycobacterium avium subspecies paratuberculosis
[9] = tested on: M. tuberculosis, M. Kansasii, M. scrofulaceum, M. avium and M. intracellulare; conditions: 5 mg/ml; cited from earlier work
[10] = tested on: MAP ATCC 19698; assay: radiometric 14CO2 BACTEC 460 growth culture, MAP 19698; type: cell-based, Mycobacterium avium subspecies paratuberculosis
[11] = tested on: M. avium; type: cell-based, M. avium subspecies avium; conditions: 4 μg/ml; value is a decrease
[12] = tested on: Bacillus Callmette Guerin (BCG) M. bovis Karlson & Lessel (ATCC 19015); type: cell-based
[13] = tested on: avirulent M. tb strain ATCC 25177; type: cell-based, M. tuberculosis
[14] = 1 μg/ml, first of the two values (two experiments)
[15] = 1 μg/ml, second of the two values (two experiments)
[16] = 4 μg/ml, first of the two values (two experiments)
[17] = 4 μg/ml, second of the two values (two experiments)
[18] = 16 μg/ml, first of the two values (two experiments)
[19] = 16 μg/ml, second of the two values (two experiments)
[20] = 64 μg/ml, first of the two values (two experiments)
[21] = 64 μg/ml, second of the two values (two experiments)

With `CN1CCCC1c1cccnc1` (racemic) [(±) nicotine, nicotine] the “effect on growth (in words)” value [1] was “neither enhancement nor an inhibitory effect”.
In the case of `CN1CCCC1c1cccnc1` (single isomer, unassigned; (+)) [(+) nicotine, nicotine], the “effect on growth (in words)” value [1] is reported as “neither enhancement nor an inhibitory effect”.
In the case of `CN1CCCC1c1cccnc1` (single isomer, unassigned; (-)) [(−) nicotine, nicotine], the “effect on growth (in words)” value [1] is reported as “neither enhancement nor an inhibitory effect”.
For `CN1CCCC1c1cccnc1` (centres unmarked) [Nicotine, nicotine, reference compound], the “effect on growth (in words)” value [1] was “no effect on growth”, the “percent change from control cGI (% ΔcGI / % −ΔcGI)” value (“percent change … (% ΔcGI / % −ΔcGI)” below) ([2]; 1 μg/ml) was −10% and the “percent change … (% ΔcGI / % −ΔcGI)” value ([2]; 4 μg/ml) was −10%. The “percent change … (% ΔcGI / % −ΔcGI)” value ([2]; 16 μg/ml) was −6%, the “percent change … (% ΔcGI / % −ΔcGI)” value ([2]; 64 μg/ml) was 9% and the “percent change … (% ΔcGI / % −ΔcGI)” value ([3]; 1 μg/ml) was 106%. For the same compound, the “percent change … (% ΔcGI / % −ΔcGI)” value ([3]; 4 μg/ml) was 63%, the “percent change … (% ΔcGI / % −ΔcGI)” value ([3]; 16 μg/ml) was 143% and the “percent change … (% ΔcGI / % −ΔcGI)” value ([3]; 64 μg/ml) was 112%. For the same compound, the “effect on MAP growth (in words)” value ([4]; 2 μg/ml, BACTEC 460 with OADC supplementation) was “Bactericidal inhibition”, the “effect on MAP growth in culture (in words)” value ([4]; solitary MAP strain, pure nicotine) was “inhibited MAP growth” and the “percent change … (% ΔcGI / % −ΔcGI)” value ([5]; 1 μg/ml) was 55%. The “percent change … (% ΔcGI / % −ΔcGI)” value ([5]; 4 μg/ml) was 0%, the “percent change … (% ΔcGI / % −ΔcGI)” value ([5]; 16 μg/ml) was 15% and the “percent change … (% ΔcGI / % −ΔcGI)” value ([5]; 64 μg/ml) was 5%. The “effect on growth (in words)” value [6] was “inhibition”, the “percent change … (% ΔcGI / % −ΔcGI)” value [7, 14] was −2% and the “percent change … (% ΔcGI / % −ΔcGI)” value [7, 15] was 0%. The “percent change … (% ΔcGI / % −ΔcGI)” value [7, 16] was 29%, the “percent change … (% ΔcGI / % −ΔcGI)” value [7, 17] was 30% and the “percent change … (% ΔcGI / % −ΔcGI)” value [7, 18] was 1%. The “percent change … (% ΔcGI / % −ΔcGI)” value [7, 19] was 6%, the “percent change … (% ΔcGI / % −ΔcGI)” value [7, 20] was −12% and the “percent change … (% ΔcGI / % −ΔcGI)” value [7, 21] was 7%. The “percent change … (% ΔcGI / % −ΔcGI)” value ([8]; 1 μg/ml) was 7%, the “percent change … (% ΔcGI / % −ΔcGI)” value ([8]; 4 μg/ml) was 8% and the “percent change … (% ΔcGI / % −ΔcGI)” value ([8]; 16 μg/ml) was −22%. The “percent change … (% ΔcGI / % −ΔcGI)” value ([8]; 64 μg/ml) was 7%, the “effect on growth (in words)” value [9] was “Enhanced growth” and the “percent change … (% ΔcGI / % −ΔcGI)” value ([10]; 1 μg/ml) was −20%. For the same compound, the “percent change … (% ΔcGI / % −ΔcGI)” value ([10]; 4 μg/ml) was −20%, the “percent change … (% ΔcGI / % −ΔcGI)” value ([10]; 16 μg/ml) was −21% and the “percent change … (% ΔcGI / % −ΔcGI)” value ([10]; 64 μg/ml) was −11%.
In the case of `Nc1ccc(C(=O)O)c(O)c1` [PAS, para-amino salicylic acid, reference compound], the “percent decrease from control cGI (%−ΔcGI)” value (“percent decrease … (%−ΔcGI)” for short) [11] is reported as no less than 94%, the “percent decrease … (%−ΔcGI)” value ([8]; 64 μg/ml, value is a decrease) is reported as 80% and the “percent decrease … (%−ΔcGI)” value ([12]; 4 μg/ml) is reported as no less than 94%. For the same compound, the “percent decrease … (%−ΔcGI)” value ([10]; 64 μg/ml, value is a decrease) was 80%.
For `NC(=O)c1ccc[n+]([C@H]2O[C@H](COP(=O)([O-])OP(=O)(O)OC[C@H]3O[C@@H](n4cnc5c(N)ncnc54)[C@H](O)[C@@H]3O)[C@@H](O)[C@H]2O)c1` [α-NAD, α-nicotinamide adenine dinucleotide], the “percent change … (% ΔcGI / % −ΔcGI)” value ([2]; 1 μg/ml) was 18%, the “percent change … (% ΔcGI / % −ΔcGI)” value ([2]; 4 μg/ml) was 35% and the “percent change … (% ΔcGI / % −ΔcGI)” value ([2]; 16 μg/ml) was 65%. For the same compound, the “percent change … (% ΔcGI / % −ΔcGI)” value ([2]; 64 μg/ml) was 81%, the “effect on growth (in words)” value [13] was “little or no effect” and the “percent change … (% ΔcGI / % −ΔcGI)” value [13] was 2% and −6% and −1% and 0%. The “percent change … (% ΔcGI / % −ΔcGI)” value ([3]; 1 μg/ml) was −2%, the “percent change … (% ΔcGI / % −ΔcGI)” value ([3]; 4 μg/ml) was 160% and the “percent change … (% ΔcGI / % −ΔcGI)” value ([3]; 16 μg/ml) was 131%. For the same compound, the “percent change … (% ΔcGI / % −ΔcGI)” value ([3]; 64 μg/ml) was 147%, the “effect on growth (in words)” value [5] was “little or no effect” and the “percent change … (% ΔcGI / % −ΔcGI)” value ([5]; 1 μg/ml) was 39%. The “percent change … (% ΔcGI / % −ΔcGI)” value ([5]; 4 μg/ml) was −15%, the “percent change … (% ΔcGI / % −ΔcGI)” value ([5]; 16 μg/ml) was −21% and the “percent change … (% ΔcGI / % −ΔcGI)” value ([5]; 64 μg/ml) was −14%. The “percent change … (% ΔcGI / % −ΔcGI)” value [7, 14] was 25%, the “percent change … (% ΔcGI / % −ΔcGI)” value [7, 15] was −16% and the “percent change … (% ΔcGI / % −ΔcGI)” value [7, 16] was 79%. For the same compound, the “percent change … (% ΔcGI / % −ΔcGI)” value [7, 17] was 35%, the “percent change … (% ΔcGI / % −ΔcGI)” value [7, 18] was 104% and the “percent change … (% ΔcGI / % −ΔcGI)” value [7, 19] was 78%. The “percent change … (% ΔcGI / % −ΔcGI)” value [7, 20] was 135%, the “percent change … (% ΔcGI / % −ΔcGI)” value [7, 21] was 115% and the “effect on growth (in words)” value [8] was “little or no effect”. For the same compound, the “percent change … (% ΔcGI / % −ΔcGI)” value ([8]; 1 μg/ml) was 8%, the “percent change … (% ΔcGI / % −ΔcGI)” value ([8]; 4 μg/ml) was 9% and the “percent change … (% ΔcGI / % −ΔcGI)” value ([8]; 16 μg/ml) was −8%. For the same compound, the “percent change … (% ΔcGI / % −ΔcGI)” value ([8]; 64 μg/ml) was −18%, the “effect on growth (in words)” value ([12]; at the doses tested) was “little or no effect” and the “effect on growth (in words)” value [10] was “little or no effect”. For the same compound, the “percent change … (% ΔcGI / % −ΔcGI)” value ([10]; 1 μg/ml) was −16%, the “percent change … (% ΔcGI / % −ΔcGI)” value ([10]; 4 μg/ml) was −6% and the “percent change … (% ΔcGI / % −ΔcGI)” value ([10]; 16 μg/ml) was −17%. The “percent change … (% ΔcGI / % −ΔcGI)” value ([10]; 64 μg/ml) was 13%.
